According to US8569039B2, “Ethanol resistance Saccharomyces cerevisiae GP-01 by protoplast fusion, method for manufacturing thereof, method for manufacturing yeast containing high content of bio organic germanium by using Saccharomyces cerevisiae GP-01 and high water soluble sodium metagermanate as a germanium source” (Geranti Pharm Ltd., priority 2008, dated 2013):
Like-named read-outs stand apart in the source and are kept apart here.

Experiments:
[1] = system: yeast GP-01 (KCTC 11399BP); test: Bio-germanium content in yeast by mixing ratio of yeast and Ge solution; assay type: cell-based, Saccharomyces Cerevisiae; details: for Bio-germanium content in yeast GP-01: 20 hours, pH 10, 40° C.
Experimental: (§1) In order to determine the content of bio-germanium in the yeast GP-01, 1 g of the cultivated and dried yeast GP-01 was added in 30 ml of nitric acid. The obtained sample was heated to be decomposed. After adjusting pH value to 6, 1 ml of the sample was mixed with 1 ml of phenylfluorone and 1 ml of cyclo nucleic acid. The obtained sample was stationary for 30 hours at 30° C. and then determined the content of germanium in the yeast GP-01 by using UV spectrophotometer at 525 nm.
The broth containing the ethanol-resistant yeast GP-01 as prepared in the Example 1 was centrifuged to collect the yeast. […] The obtained solutions were cultivated for 20 hours at pH 10 and temperature 40° C.
Also, as a control, the same procedure described in Example 3 was performed, except that a solution of (inorganic) germanium dioxide (GeO2) was used instead of sodium metagermanate (Na2GeO3).
The contents of germanium in the yeast GP-01 (KCTC 11399BP) was measured by the same method as Example 2.

[2] = system: yeast GP-01 (KCTC11399BP); test: Germanium inoculated into the yeast by pH, temperature and surfactant concentration; assay type: cell-based, Saccharomyces Cerevisiae; details: 5,000 ppm germanium, ratio 1:0.5, 20 hours
Experimental: as §1
The broth containing the ethanol-resistant yeast GP-01 as prepared in the Example 1 was centrifuged to collect the yeast. At the ratio of 1:0.5, the collected yeast was added in the solution of sodium metagermanate (Na2GeO3) having 5,000 ppm of germanium. After adding surfactant (Twin-80), the obtained solution was cultivated for 20 hours by various conditions for pH, temperature or the broth containing germanium.
The pH was regulated by using 1N NaOH, and a number of tests were repeatedly performed under different temperatures and concentrations of surfactant.
When measuring the content of germanium, the broth without adding the surfactant was used as a control.
The measurement of content of bio-germanium in the yeast GP-01 (KCTC11399BP) of the present invention was made by the same method as Example 2.

[3] = system: yeast GP-01 (KCTC11399BP); test: Bio-germanium content inoculated into the yeast by content of germanium in the solution; assay type: cell-based, Saccharomyces Cerevisiae; details: for Bio-germanium content inoculated into the yeast: 20 hours, pH 10, 40° C.
Experimental: The broth medium containing the mutated Saccharomyces Cerevisiae, yeast GP-01 (KCTC11399BP), was centrifuged to collect the palletized yeast. The collected pelletized yeast was added in each of the solutions of sodium metagermanate (Na2GeO3) with different concentrations of germanium. The prepared solutions were cultivated for 20 hours at pH 10 and temperature 40° C.
as §1, with “nm. […]” for “nm.”

[4] = system: Saccharomyces Cerevisiae (KCTC 7904); test: as above; assay type: cell-based; details: KCTC7904; for Bio-germanium content inoculated into the yeast: 20 hours, pH 10, 40° C.
[5] = Solubility of the germanium source; assay type: physicochemical; details: 25° C.
Experimental: The solution of Sodium Metagermanate (Na2GeO3) was prepared by dissolving sodium carbonate (Na2CO3, Kanto, Japan) in water, adding germanium dioxide (GeO2, PPM GmbH, Germany) at the equivalent ratio of 1:1 against the said sodium carbonate, and sterilized the obtained solution.

[6] = system: yeast GP-01 (KCTC 11399BP)
Experimental: (§2) In order to examine the ethanol resistance of the obtained yeast GP-01, the ethanol, which is the inhibitor of the growth, was added by the concentrations and the status of the growth of the yeast was checked.

[7] = system: Saccharomyces Cerevisiae (KCTC 7904); details: KCTC7904
Experimental: as §2

[8] = 25° C.; cited from earlier work
[9] = mixing ratio yeast GP-01:Ge solution 1:0.2
[10] = mixing ratio yeast GP-01:Ge solution 1:0.5
[11] = mixing ratio yeast GP-01:Ge solution 1:1
[12] = mixing ratio yeast GP-01:Ge solution 1:2
[13] = mixing ratio yeast GP-01:Ge solution 1:3
[14] = germanium in the solution 3,000 ppm
[15] = germanium in the solution 4,000 ppm
[16] = germanium in the solution 5,000 ppm
[17] = germanium in the solution 10,000 ppm
[18] = germanium in the solution 15,000 ppm
[19] = germanium in the solution 1,000 ppm
[20] = germanium in the solution 2,000 ppm

## [Na+].[Na+].[O]=[Ge]([O-])[O-] [Na2GeO3 solution, sodium metagermanate]
[1]; Na2GeO3 solution compared with germanium dioxide, Table 3
  increase of content of bio-germanium versus germanium dioxide: 2-4 times
[1]; [9]
  Bio-germanium content in yeast GP-01: 4,350 ppm
[1]; [10]
  Bio-germanium content in yeast GP-01: 14,800 ppm
[1]; [11]
  Bio-germanium content in yeast GP-01: 12,600 ppm
[1]; [12]
  Bio-germanium content in yeast GP-01: 9,760 ppm
[1]; [13]
  Bio-germanium content in yeast GP-01: 8,720 ppm
[2]; Control: broth without adding the surfactant
  Bio-germanium inoculated: 1,720 ppm
[2]; pH 4.0
  Bio-germanium inoculated: 2,190 ppm
[2]; pH 5.0
  Bio-germanium inoculated: 3,254 ppm
[2]; pH 6.0
  Bio-germanium inoculated: 5,320 ppm
[2]; pH 6.5
  Bio-germanium inoculated: 5,790 ppm
[2]; pH 7.0
  Bio-germanium inoculated: 9,750 ppm
[2]; pH 8.0
  Bio-germanium inoculated: 10,700 ppm
[2]; pH 9.0
  Bio-germanium inoculated: 15,200 ppm
[2]; pH 10.0
  Bio-germanium inoculated: 16,300 ppm
[2]; pH 11.0
  Bio-germanium inoculated: 9,320 ppm
[2]; surfactant Twin-80 0.1 wt %
  Bio-germanium inoculated: 8,743 ppm
[2]; surfactant Twin-80 0.2 wt %
  Bio-germanium inoculated: 16,250 ppm
[2]; surfactant Twin-80 0.3 wt %
  Bio-germanium inoculated: 12,530 ppm
[2]; surfactant Twin-80 0.4 wt %
  Bio-germanium inoculated: 9,670 ppm
[2]; surfactant Twin-80 0.5 wt %
  Bio-germanium inoculated: 7,624 ppm
[2]; surfactant Twin-80 0.6 wt %
  Bio-germanium inoculated: 5,670 ppm
[2]; surfactant Twin-80 0.7 wt %
  Bio-germanium inoculated: 4,830 ppm
[2]; surfactant Twin-80 0.8 wt %
  Bio-germanium inoculated: 2,700 ppm
[2]; temperature 20 ° C.
  Bio-germanium inoculated: 3,102 ppm
[2]; temperature 30 ° C.
  Bio-germanium inoculated: 9,648 ppm
[2]; temperature 35 ° C.
  Bio-germanium inoculated: 13,250 ppm
[2]; temperature 40 ° C.
  Bio-germanium inoculated: 14,700 ppm
[2]; temperature 45 ° C.
  Bio-germanium inoculated: 8,350 ppm
[2]; temperature 50 ° C.
  Bio-germanium inoculated: 4,564 ppm
[3]; [14]
  Yield (%) of germanium inoculated: 155%
  Bio-germanium content inoculated into the yeast: 4,640 ppm
[3]; [15]
  Yield (%) of germanium inoculated: 171%
  Bio-germanium content inoculated into the yeast: 6,840 ppm
[3]; [16]
  Yield (%) of germanium inoculated: 194%
  Bio-germanium content inoculated into the yeast: 9,700 ppm
[3]; [17]
  Yield (%) of germanium inoculated: 130%
  Bio-germanium content inoculated into the yeast: 13,000 ppm
[3]; [18]
  Yield (%) of germanium inoculated: 110%
  Bio-germanium content inoculated into the yeast: 16,500 ppm
[4]; [14]
  Yield (%) of germanium inoculated: 32%
  Bio-germanium content inoculated into the yeast: 950 ppm
[4]; [15]
  Yield (%) of germanium inoculated: 38%
  Bio-germanium content inoculated into the yeast: 1,500 ppm
[4]; [16]
  Yield (%) of germanium inoculated: 47%
  Bio-germanium content inoculated into the yeast: 2,370 ppm
[4]; [17]
  Yield (%) of germanium inoculated: 45%
  Bio-germanium content inoculated into the yeast: 4,500 ppm
[4]; [18]
  Yield (%) of germanium inoculated: 38%
  Bio-germanium content inoculated into the yeast: 5,730 ppm
[5]
  solubility: 500 g/L

## CCO [ethanol]
[6]; GP-01 1st investigation, ethanol 6.0 % v/v
  Growth status OD(660 nm, 1/20): 0.15
[6]; GP-01 1st investigation, ethanol 8.0 % v/v
  Growth status OD(660 nm, 1/20): 0.14
[6]; GP-01 1st investigation, ethanol 10.0 % v/v
  Growth status OD(660 nm, 1/20): 0.16
[6]; GP-01 1st investigation, ethanol 15.0 % v/v
  Growth status OD(660 nm, 1/20): 0.12
[6]; GP-01 2nd investigation, ethanol 6.0 % v/v
  Growth status OD(660 nm, 1/20): 0.14
[6]; GP-01 2nd investigation, ethanol 8.0 % v/v
  Growth status OD(660 nm, 1/20): 0.20
[6]; GP-01 2nd investigation, ethanol 10.0 % v/v
  Growth status OD(660 nm, 1/20): 0.19
[6]; GP-01 2nd investigation, ethanol 15.0 % v/v
  Growth status OD(660 nm, 1/20): 0.08
[6]; GP-01 3rd investigation, ethanol 6.0 % v/v
  Growth status OD(660 nm, 1/20): 0.20
[6]; GP-01 3rd investigation, ethanol 8.0 % v/v
  Growth status OD(660 nm, 1/20): 0.23
[6]; GP-01 3rd investigation, ethanol 10.0 % v/v
  Growth status OD(660 nm, 1/20): 0.24
[6]; GP-01 3rd investigation, ethanol 15.0 % v/v
  Growth status OD(660 nm, 1/20): 0.15
[7]; ethanol 6.0 % v/v
  Growth status OD(660 nm, 1/20): 0.07
[7]; ethanol 8.0 % v/v
  Growth status OD(660 nm, 1/20): 0.06
[7]; ethanol 10.0 % v/v
  Growth status OD(660 nm, 1/20): 0.05

## germanium dioxide [GeO2 solution, reference compound]
[1]; [9]
  Bio-germanium content in yeast GP-01: 1,920 ppm
[1]; [10]
  Bio-germanium content in yeast GP-01: 5,670 ppm
[1]; [11]
  Bio-germanium content in yeast GP-01: 4,780 ppm
[1]; [12]
  Bio-germanium content in yeast GP-01: 2,500 ppm
[1]; [13]
  Bio-germanium content in yeast GP-01: 1,700 ppm
[3]; [19]
  Yield (%) of germanium inoculated: 87%
  Bio-germanium content inoculated into the yeast: 870 ppm
[3]; [20]
  Yield (%) of germanium inoculated: 89%
  Bio-germanium content inoculated into the yeast: 1,786 ppm
[3]; [14]
  Yield (%) of germanium inoculated: 89%
  Bio-germanium content inoculated into the yeast: 2,670 ppm
[3]; [15]
  Yield (%) of germanium inoculated: 96%
  Bio-germanium content inoculated into the yeast: 3,850 ppm
[3]; [16]
  Yield (%) of germanium inoculated: 95%
  Bio-germanium content inoculated into the yeast: 4,753 ppm
[4]; [19]
  Yield (%) of germanium inoculated: 78%
  Bio-germanium content inoculated into the yeast: 780 ppm
[4]; [20]
  Yield (%) of germanium inoculated: 44%
  Bio-germanium content inoculated into the yeast: 870 ppm
[4]; [14]
  Yield (%) of germanium inoculated: 33%
  Bio-germanium content inoculated into the yeast: 980 ppm
[4]; [15]
  Yield (%) of germanium inoculated: 36%
  Bio-germanium content inoculated into the yeast: 1,430 ppm
[4]; [16]
  Yield (%) of germanium inoculated: 30%
  Bio-germanium content inoculated into the yeast: 1,500 ppm
[8]
  solubility: 5.2 g/L
